Laboratory results from the NIST ThermoML archive (doi:10.1021/je400879v).

Assay: molar heat capacity at constant pressure
Conditions: 101.33 kPa, Crystal

COC(=O)[C@H](Cc1ccccc1)NC(=O)[C@H](CC(C)C)NC(=O)[C@H](CCSC)NC=O [methyl formyl-L-methionyl-L-leucyl-L-phenylalaninate]
Conditions | molar heat capacity at constant pressure [J/K/mol]
5 K | 1.99
6.02 K | 2.6
6.13 K | 2.71
6.28 K | 2.91
6.43 K | 3.21
6.59 K | 3.52
6.73 K | 3.88
6.88 K | 4.29
7.04 K | 4.56
7.19 K | 4.97
7.35 K | 5.42
7.52 K | 5.83
7.66 K | 6.28
7.84 K | 6.73
7.98 K | 7.23
8.17 K | 7.72
8.33 K | 8.13
8.5 K | 8.58
8.7 K | 9.08
8.84 K | 9.48
8.98 K | 9.89
9.13 K | 10.3
9.3 K | 10.7
9.45 K | 11
9.62 K | 11.5
9.78 K | 11.8
9.95 K | 12.3
10 K | 12.5
10.27 K | 13.2
10.63 K | 14.1
11.04 K | 15
11.45 K | 16
11.88 K | 17.1
12.29 K | 18
12.79 K | 19.2
13.24 K | 20.4
13.71 K | 21.7
14.18 K | 22.7
14.65 K | 24.1
15 K | 25.1
15.12 K | 25.3
15.6 K | 26.78
15.99 K | 28
16.64 K | 29.85
17.1 K | 31.58
17.62 K | 33.24
18.1 K | 34.79
18.78 K | 37.21
19.22 K | 38.75
19.72 K | 40.59
20 K | 41.76
21.41 K | 47.32
23.4 K | 55.2
25 K | 61.13
25.67 K | 63.45
27.96 K | 71.89
30 K | 79.28
30.29 K | 80.5
32.65 K | 88.71
35.04 K | 96.64
37.44 K | 105
39.87 K | 112.9
40 K | 113.3
42.32 K | 120.6
44.78 K | 127.7
47.26 K | 134.1
49.75 K | 139.9
50 K | 140.8
52.01 K | 145.9
54.78 K | 153.1
57.3 K | 160.1
59.87 K | 167.1
60 K | 167.6
62.41 K | 174.3
64.96 K | 181.3
66.9 K | 186.5
70 K | 194.3
70.06 K | 194.1
72.6 K | 201
75.15 K | 206
77.73 K | 212.1
80 K | 216.1
80.1 K | 216.1
82.93 K | 221.7
85.5 K | 227
88.2 K | 232.3
90 K | 236.3
90.6 K | 238.4
90.85 K | 237.1
93.51 K | 243.4
96.19 K | 248.8
98.88 K | 253.3
100 K | 256.4
101.58 K | 258.9
104.28 K | 264
106.98 K | 269.4
109.69 K | 274.9
110 K | 275.6
112.38 K | 279.5
115.08 K | 284.3
117.78 K | 289.3
120 K | 292.9
120.47 K | 293.3
123.16 K | 297.5
125.85 K | 302.5
128.53 K | 306.7
130 K | 309.1
131.22 K | 310.6
133.99 K | 316.2
136.67 K | 319.1
139.35 K | 323.5
140 K | 324.7
